Legend:
Format in all cases: functional, cell-based
MDA-MB-231 = assay: Antiproliferative activity against human MDA-MB-231 cells assessed as reduction in cell viability incubated for 24 hrs by MTT assay; conditions: MDA-MB-231, 24 h
SK-BR-3 = assay: Antiproliferative activity against human SK-BR-3 cells assessed as reduction in cell viability incubated for 24 hrs by MTT assay; conditions: SK-BR-3, 24 h
MCF-10A = assay: Antiproliferative activity against human MCF-10A cells assessed as reduction in cell viability incubated for 24 hrs by MTT assay

Row | IC50 (MDA-MB-231) [µM] | IC50 (SK-BR-3) [µM] | Compound | IC50 (MCF-10A) [µM]
1 | 20.8 | > 50 | COc1cccc2c1C(=O)c1c(O)c3c(c(O)c1C2=O)C[C@@](O)(C(=O)CO)C[C@@H]3O[C@H]1C[C@H](N)[C@H](O)[C@H](C)O1 [DOXORUBICIN] | 35.2
2 | 19.6 | 16.4 | O=C(CCCCCCCCc1ccc(O)c(O)c1)c1c(O)cccc1O [MALABARICONE C] | 97.3
3 | 19.1 | 13.5 | O=C(CCCCCCCCc1ccc(O)cc1)c1c(O)cccc1O [MALABARICONE B] | 62
